Assay results: patent US5366982A (priority 1990, dated 1994)

Each compound was assayed against leukotriene B4 receptors (Cavia porcellus, UniProt H0VYV8) (assay: biochemical). Details: Table XIX; guinea-pig spleen membranes, tritium-labelled LTB4; read-out: IC50 Binding (Cheng).
leukotriene B4 receptors, sequence (H0VYV8 1-348): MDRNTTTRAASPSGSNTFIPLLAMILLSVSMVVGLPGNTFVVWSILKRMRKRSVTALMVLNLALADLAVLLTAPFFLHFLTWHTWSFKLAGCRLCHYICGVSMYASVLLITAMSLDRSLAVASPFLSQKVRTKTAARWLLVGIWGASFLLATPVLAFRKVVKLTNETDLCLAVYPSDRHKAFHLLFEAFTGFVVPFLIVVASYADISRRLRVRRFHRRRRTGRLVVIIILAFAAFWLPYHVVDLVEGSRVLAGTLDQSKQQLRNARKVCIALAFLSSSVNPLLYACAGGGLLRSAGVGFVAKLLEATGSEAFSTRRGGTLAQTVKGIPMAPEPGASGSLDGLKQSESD
Type: binding, guinea-pig
For `Cc1ccc2c(-c3ccccc3)cc(OCCCCC(C)(C)C(=O)O)nc2c1` [2,2-dimethyl-6-[(7-methyl-4-phenyl-2-quinolyl)oxy]hexanoic acid], the IC50 was 2000 nM. With `COc1ccc(-c2cc(OCCCCC(C)C(=O)O)nc3ccccc23)cc1` (centres unmarked) [2-methyl-6-{[4-(4-methoxyphenyl)-2-quinolyl]oxy}hexanoic acid] the IC50 was 16 nM. `O=C(O)CCCCCCCOc1cccc(-c2ccccc2)n1` was tested, and the IC50 was 6000 nM. For `Cc1ccc2nc(OCCCCC(C)(C)C(=O)O)cc(-c3ccccc3)c2c1` [6-[(6-methyl-4-phenyl-2-quinolyl)oxy]-2,2-dimethylhexanoic acid], the IC50 was 5000 nM. `Cc1ccc(-c2cc(-c3ccccc3)cc(OCCCCCC(=O)O)n2)cc1` [6-{[6-(4-methylphenyl)-4-phenyl-2-pyridyl]oxy}hexanoic acid] gave an IC50 of 300 nM. Work on `CC(C)(CCCCOc1cc(-c2ccc([N+](=O)[O-])cc2)c2ccccc2n1)C(=O)O` [2,2-dimethyl-6-{[4-(4-nitrophenyl)-2-quinolyl]oxy}hexanoic acid] yielded an IC50 of 150 nM. Compound `COc1ccc(-c2ccc(OCCCCCCCC(=O)O)nc2-c2ccc(OC)cc2)cc1` [8-{[5,6-bis-(4-methoxyphenyl)-2-pyridyl]oxy}octanoic acid] has an IC50 of 3000 nM. With `Cc1cc(-c2ccccc2)cc(OCCCCC(C)(C)C(=O)O)n1` [6-[(6-methyl-4-phenyl-2-pyridyl)oxy]-2,2-dimethylhexanoic acid] the IC50 was 10 nM. `O=C(O)COCCCOc1cc(-c2ccccc2)cc(-c2ccccc2)n1` was tested, and the IC50 was 100 nM. Work on `O=C(O)CCCCCOc1cc(-c2cccc(Cl)c2)cc(-c2ccccc2)n1` [6-{[4-(3-chlorophenyl)-6-phenyl-2-pyridyl]oxy}hexanoic acid] yielded an IC50 of 4 nM. With `O=C(O)CCCCCOc1cc(-c2ccc(Cl)cc2)cc(-c2ccc(Cl)cc2)n1` [6-{[4,6-di(4-chlorophenyl)-2-pyridyl]oxy}hexanoic acid] the IC50 was 1200 nM. `CC(C)(CCCCCCOc1cc(-c2ccccc2)cc(-c2ccccc2)n1)C(=O)O` [2,2-dimethyl-8-[(4,6-diphenyl-2-pyridyl)oxy]octanoic acid] was tested, and the IC50 was 22 nM. Compound `COc1ccc(-c2cc(OCCCCCC(=O)O)nc(-c3ccc(OC)cc3)c2)cc1` [6-{[4,6-di(4-methoxyphenyl)-2-pyridyl]oxy}hexanoic acid] has an IC50 of 3000 nM. `CC(C)(CCCCOc1cc(-c2ccc(Cl)cc2)c2ccccc2n1)c1nnn[nH]1` [5-{1,1-dimethyl-5-{[4-(4-chlorophenyl)-2-quinolyl]oxy}pentyl}-[1H]-tetrazole] showed an IC50 of 30 nM. Compound `CC(C)(CCCCOc1cc(-c2ccc(C(F)(F)F)cc2)c2ccccc2n1)C(=O)O` [2,2-dimethyl-6-{[4-(4-trifluoromethylphenyl)-2-quinolyl]oxy}hexanoic acid] has an IC50 of 300 nM. For `O=C(O)CCCCCOc1cc(-c2ccccc2)cc(-c2ccc(Cl)cc2)n1` [6-{[6-(4-chlorophenyl)-4-phenyl-2-pyridyl]oxy}hexanoic acid], the IC50 was 1000 nM. `O=C(O)CCCCCOc1cc(-c2ccccc2)c2ccccc2n1` [6-[(4-phenyl-2-quinolyl)oxy]hexanoic acid] showed an IC50 of 700 nM. `O=C(O)CCCCCOc1cc(-c2ccccc2)cc(-c2ccccc2)c1` [6-(3,5-diphenyl-phenoxy)hexanoic acid] showed an IC50 of 8 nM. Work on `CC(C)(CCCCOc1cccc(-c2ccccc2)n1)C(=O)O` [6-[(6-phenyl-2-pyridyl)oxy]-2,2-dimethylhexanoic acid] yielded an IC50 of 2000 nM. In the case of `CC(C)(CCCCOc1cc(-c2cccs2)c2ccccc2n1)C(=O)O` [2,2-dimethyl-6-{[4-(2-thienyl)-2-quinolyl]oxy}hexanoic acid], the IC50 is reported as 200 nM. `COc1cccc(-c2cc(OCCCCC(C)(C)C(=O)O)nc3ccccc23)c1` [2,2-dimethyl-6-{[4-(3-methoxyphenyl)-2-quinolyl]oxy}hexanoic acid] gave an IC50 of 300 nM.

Same assay, conditions: read-out: Binding (Cheng) % Inhibition at 10 μM
With `COc1ccc(-c2cc(OCCCCCC(=O)O)nc(-c3ccccc3)c2)cc1OC` [6-{[6-phenyl-4-(3,4-dimethoxyphenyl)-2-pyridyl]oxy]hexanoic acid] the inhibition at 10 µM was 21%. `O=C(O)CCCCC=Cc1cc(-c2ccccc2)c2ccccc2n1` [7-(4-phenyl-2-quinolyl)-6-hepten-1-oic acid] showed an inhibition at 10 µM of 27%.
